Test systems include Staphylococcus capitis 1; Bacillus megaterium Bm11; Escherichia coli K-12; Bacillus subtilis 168; Enterobacter cloacae; Bacillus subtilis; Pseudomonas aeruginosa; Staphylococcus aureus; Escherichia coli; Escherichia coli B; Listeria innocua; Micrococcus luteus A270; Streptococcus mutans.
Holding throughout (assay): ≥ marks a high value that may be exact or a test limit, other limits are often not marked, values filed in µg/mL are converted to µM
Test [1] deals with Burkholderia thailandensis.
Test [2] relates to Bacillus subtilis ATCC 9372.
Test [3] concerns Bacillus anthracis Sterne 34F2.
For test [4], the system named is Candida albicans ATCC 10231.
Test [5] deals with Yersinia pseudotuberculosis YPIII.
Test [6] relates to Staphylococcus aureus Cowan 1.
The test system of test [7] is Escherichia coli ATCC 25922.
In test [8] the test system is Staphylococcus aureus USA 300.
The test system of test [9] is Candida albicans ATCC 90028.
Test [10] concerns Escherichia coli ATCC 8739.
For test [11], the system named is Staphylococcus aureus ATCC 6538.
The subject of test [12] is Staphylococcus aureus ATCC 43300.
For test [13], the system named is Bacillus subtilis ATCC 6633.
The test system of test [14] is Pseudomonas aeruginosa PAO1.
For test [15], the system named is Staphylococcus aureus ATCC 25923.
Test [16] relates to Pseudomonas aeruginosa ATCC 27853.
Test [17] relates to Salmonella enterica subsp. enterica serovar Typhi.
In test [18] the test system is Micrococcus luteus CCM 144.
The subject of test [19] is Candida albicans F7-39/IDE99.
In test [20] the test system is Salmonella enterica subsp. enterica serovar Enteritidis.

Structures are written as SMILES. In brackets after ≈: the same amount, converted by molar mass.

As usually defined, the MIC is the lowest concentration found to suppress growth. `CC(=O)N[C@@H](C)C(=O)N[C@@H](CCC(=O)O)C(=O)N[C@@H](CCCN=C(N)N)C(=O)N[C@H](C(=O)NCC(=O)N[C@@H](C)C(=O)NCC(=O)N[C@@H](C)C(=O)N1CCC[C@H]1C(=O)N[C@H](C(=O)N[C@@H](Cc1ccc(O)cc1)C(=O)N[C@@H](CC(C)C)C(N)=O)C(C)C)C(C)C` [AERVGAGAPVYL]: the minimal inhibitory concentration (MIC) in test [1] was at least 50 µM; in [2] it was at least 100 µM; in test [3] it was at least 100 µM.

`CC[C@H](C)[C@H](NC(=O)CNC(=O)[C@H](C)NC(=O)[C@H](CC(C)C)NC(=O)[C@@H](NC(=O)[C@H](CCCN=C(N)N)NC(=O)CNC(=O)[C@@H](NC(=O)[C@H](CC(C)C)NC(=O)[C@@H]1CCCN1C(=O)[C@H](CC(C)C)NC(=O)[C@@H](N)Cc1ccccc1)[C@@H](C)CC)C(C)C)C(=O)N[C@@H](CC(C)C)C(N)=O` [FLPLIGRVLAGIL]: the minimal inhibitory concentration (MIC) in [4] is 2.5 µM (≈ 3.45 µg/mL); against Staphylococcus capitis 1 it was 5 µM (≈ 6.9 µg/mL); in [5], 20 µM (≈ 27.6 µg/mL); in the test on Bacillus megaterium Bm11, 2.5 µM (≈ 3.45 µg/mL); in test [6] it was 2.5 µM (≈ 3.45 µg/mL); in test [7], over 40 µM.

For `CC[C@H](C)[C@H](NC(=O)[C@H](CCCN=C(N)N)NC(=O)[C@H](CCC(N)=O)NC(=O)[C@@H](NC(=O)[C@@H](NC(=O)[C@H](CCCN=C(N)N)NC(=O)[C@H](CCCCN)NC(=O)[C@H](Cc1ccccc1)NC(=O)[C@H](CCC(=O)O)NC(=O)CN)[C@@H](C)CC)C(C)C)C(=O)N[C@@H](CCCCN)C(=O)N[C@@H](CC(=O)O)C(=O)N[C@@H](Cc1ccccc1)C(=O)N[C@@H](CC(C)C)C(=O)N[C@@H](CCCN=C(N)N)C(=O)N[C@@H](CC(N)=O)C(=O)N[C@@H](CC(C)C)C(=O)N[C@H](C(N)=O)C(C)C` [GEFKRIVQRIKDFLRNLV], the minimal inhibitory concentration (MIC) (in the test with Escherichia coli K-12; in [8]) was at least 60 µM each time.

For the compound `CC[C@H](C)[C@H](NC(=O)CN)C(=O)N[C@@H](Cc1ccccc1)C(=O)N[C@@H](CO)C(=O)N[C@H](C(=O)N[C@H](C(=O)N[C@@H](Cc1ccccc1)C(=O)N[C@@H](CCCCN)C(=O)N[C@@H](C)C(=O)NCC(=O)N[C@@H](CCCCN)C(=O)NCC(=O)N[C@H](C(=O)N[C@H](C(=O)N[C@H]1CSSC[C@@H](C(=O)O)NC(=O)[C@H](CC(C)C)NC(=O)CNC(=O)[C@H]([C@@H](C)O)NC(=O)[C@H](CC(C)C)NC(=O)CNC1=O)C(C)C)[C@@H](C)CC)C(C)C)[C@@H](C)O` [GIFSTVFKAGKGIVCGLTGLC], the MIC in test [9] is at least 50 µM; in test [10], 25 µM (≈ 51.7 µg/mL); in test [11], 3.1 µM (≈ 6.42 µg/mL); in [12], 12.5 µM (≈ 25.9 µg/mL); in [13] it was 12.5 µM (≈ 25.9 µg/mL).

Turning to `CC(C)C[C@H](NC(=O)[C@H](CC(C)C)NC(=O)[C@H](CCCCN)NC(=O)CNC(=O)[C@H](CC(C)C)NC(=O)[C@H](CC(C)C)NC(=O)[C@H](CO)NC(=O)[C@H](CC(C)C)NC(=O)[C@H](CC(C)C)NC(=O)[C@@H]1CCCN1C(=O)[C@H](CC(C)C)NC(=O)[C@H](CC(C)C)NC(=O)CN)C(N)=O` [GLLPLLSLLGKLL], the MIC in test [14] is over 100 µM; against Bacillus subtilis 168, 3.12 µM (≈ 4.21 µg/mL); against Escherichia coli K-12 it was 25 µM (≈ 33.7 µg/mL); in test [8], 1.56 µM (≈ 2.1 µg/mL).

As for `CC(C)C[C@H](NC(=O)[C@H](CCCCN)NC(=O)[C@H](CCCN=C(N)N)NC(=O)[C@H](Cc1ccccc1)NC(=O)[C@H](Cc1ccccc1)NC(=O)[C@H](CCCCN)NC(=O)[C@H](CCCCN)NC(=O)[C@H](Cc1ccccc1)NC(=O)[C@H](CCCN=C(N)N)NC(=O)[C@H](CCCCN)NC(=O)[C@@H](NC(=O)[C@H](CC(C)C)NC(=O)[C@@H](N)CCCCN)C(C)C)C(=O)N[C@@H](CCCCN)C(=O)N[C@@H](CCCCN)C(=O)N[C@@H](CO)C(N)=O` [KLVKRFKKFFRKLKKS], the MIC in test [15] was 0.961 µM (≈ 2 µg/mL); in test [9] it was 30.7 µM (≈ 64 µg/mL); in test [16], 61.5 µM (≈ 128 µg/mL); in the test on Enterobacter cloacae, at least 123 µM; in the test with Bacillus subtilis it was at least 61.5 µM; against Pseudomonas aeruginosa, 7.69 µM (≈ 16 µg/mL). In addition, the MIC amounted to 3.84 µM (≈ 8 µg/mL) in [17], 61.5 µM (≈ 128 µg/mL) against Staphylococcus aureus, 15.4 µM (≈ 32 µg/mL) in the test on Escherichia coli and 30.7 µM (≈ 64 µg/mL) in [7].

Consider `CC(C)C[C@H](NC(=O)CNC(=O)[C@H](C)NC(=O)CNC(=O)[C@H](Cc1c[nH]c2ccccc12)NC(=O)[C@H](CC(N)=O)NC(=O)[C@@H](N)CC(C)C)C(=O)N[C@@H](CCCCN)C(=O)N[C@@H](Cc1cnc[nH]1)C(=O)NCC(=O)NCC(=O)N[C@@H](CCCCN)C(N)=O` [LNWGAGLKHGGK], for which the MIC in the test on Escherichia coli B is at least 100 µM; in [18] it was at least 100 µM; with Pseudomonas aeruginosa, over 100 µM; in the test on Staphylococcus aureus, over 100 µM; against Bacillus subtilis 168, at least 100 µM; in [19] it was at least 100 µM.

As for `CC[C@H](C)[C@H](NC(=O)[C@H](C)NC(=O)CNC(=O)[C@H](Cc1c[nH]c2ccccc12)NC(=O)[C@H](CC(N)=O)NC(=O)[C@@H](N)CC(C)C)C(=O)N[C@@H](CC(C)C)C(=O)N[C@@H](CCCCN)C(=O)N[C@@H](Cc1cnc[nH]1)C(=O)N[C@H](C(=O)N[C@@H](CCCCN)C(=O)N[C@@H](CCCCN)C(N)=O)[C@@H](C)CC` [LNWGAILKHIKK], the MIC was at least 70 µM against Escherichia coli B; 10.8 µM (≈ 15.3 µg/mL) in test [18]; 93.3 µM (≈ 132 µg/mL) against Pseudomonas aeruginosa; 100 µM (≈ 142 µg/mL) in the test on Staphylococcus aureus; 13.3 µM (≈ 18.9 µg/mL) in the test on Bacillus subtilis 168; 11.3 µM (≈ 16 µg/mL) in [19].

With `CSCC[C@H](N)C(=O)N[C@@H](CC(C)C)C(=O)N[C@H](C(=O)N[C@@H](C)C(=O)N[C@@H](CCC(=O)O)C(=O)N[C@@H](CCC(=O)O)C(=O)N[C@@H](CCCCN)C(=O)N[C@@H](C)C(=O)N[C@@H](C)C(=O)N[C@H](C(=O)N[C@H](C(=O)N[C@@H](C)C(=O)N[C@@H](Cc1ccccc1)C(=O)O)[C@@H](C)O)C(C)C)[C@@H](C)O` [MLTAEEKAAVTAF], the MIC was 6 µM (≈ 8.29 µg/mL) against Listeria innocua, 6 µM (≈ 8.29 µg/mL) in test [20], 4 µM (≈ 5.53 µg/mL) in the test with Micrococcus luteus A270 and 4 µM (≈ 5.53 µg/mL) against Escherichia coli.

`NCCCC[C@H](NC(=O)[C@H](Cc1c[nH]c2ccccc12)NC(=O)[C@H](Cc1c[nH]c2ccccc12)NC(=O)[C@H](Cc1c[nH]c2ccccc12)NC(=O)[C@H](CCCN=C(N)N)NC(=O)[C@H](CCCN=C(N)N)NC(=O)[C@@H](N)CCCN=C(N)N)C(=O)O` [RRRWWWK] gave an MIC in the test with Streptococcus mutans of at least 53.3 µM.

In the test on Streptococcus mutans, `CC[C@H](C)[C@H](NC(=O)[C@H](CCC(N)=O)NC(=O)[C@H](CCCCN)NC(=O)[C@@H](NC(=O)[C@H](CCC(=O)O)NC(=O)[C@H](CCC(N)=O)NC(=O)[C@H](CC(C)C)NC(=O)[C@@H](NC(=O)[C@@H](N)CCCN=C(N)N)C(C)C)[C@@H](C)CC)C(=O)N[C@@H](CC(C)C)C(=O)N[C@@H](CCCCN)C(=O)O` [RVLQEIKQILK] had an MIC of at least 183 µM.

For the compound `CC(C)C[C@H](NC(=O)[C@H](CCC(=O)O)NC(=O)[C@@H](NC(=O)[C@H](CC(=O)O)NC(=O)[C@H](CCCCN)NC(=O)[C@H](CC(N)=O)NC(=O)[C@H](C)NC(=O)[C@H](CCCCN)NC(=O)[C@H](CCCCN)NC(=O)CNC(=O)[C@H](CCCCN)NC(=O)[C@@H](N)CO)C(C)C)C(=O)N[C@@H](C)C(=O)N[C@@H](CCCN=C(N)N)C(=O)NCC(=O)O` [SKGKKANKDVELARG], the MIC in [1] is at least 50 µM; in [2], at least 100 µM; in [3], at least 100 µM.
